Patent publication US11639494B2, “Culture medium” (Vitrolife Sweden AB, priority 2015, dated 2023)

Columns and labels:
[1] = tested on: embryos; experiment: Group embryo culture in 20% oxygen, blastocyst cell numbers by differential staining; format: cell-based, mice; details: 20% O2; for optimal dose (dose that resulted in significantly higher cell numbers): single compound
Experimental: F1 virgin hybrid female mice (C57BL/6×CBA) at 3-4 weeks old were intraperitoneally injected with 5 IU of pregnant mare's serum gonadotrophin. 48 hours later 5 IU of human chorulon gonadotrophin was administered and the female mice mated with F1 male mice >12 weeks old. Successful mating was confirmed by the presence of a vaginal mucus plug the following morning. Pronucleate oocytes were collected 22 hours after hCG injection, in pre-warmed handling medium (G-MOPS) supplemented with 5 mg/ml human sera albumin. Cumulus cells were denuded from the oocytes with GMOPS containing 300 IU/ml hyaluronidase. All embryos were washed twice in G-MOPS media and once in G-1™ medium prior to allocation for culture. Animals were housed in 12 hour light-day photoperiod with food and water available ad libitum.
Embryos were cultured in groups of 10 in 20 ul drops of media under paraffin oil in 6% CO2 in air (atmospheric oxygen ˜20%) or at 6% CO2 5% oxygen at 37° C. in a humidified multi gas incubator (Sanyo MCOK-5M[RC], Japan). Embryos were cultured in G-1™ medium (G-1™ with HSA-Solution™, Vitrolife) for 48 hours and then for a further 48 hours in G-2™ medium (G-2™ with HSA-Solution™, Vitrolife). […] All cultures were performed in 35 mm petri dishes (Falcon, BD Biosciences).
Differential staining of embryos was performed by techniques commonly known in the art to determine the allocation of cells to the inner cell mass (ICM) and trophectoderm (TE) on day 5 (e.g. in the blastocyst). Briefly, after zona removal using pronase, embryos were treated with a complement reaction which labels the in TE nuclei with propidium iodide and leaves the ICM intact and unlabelled. Following bisbenzimide treatment, all nuclei were stained. Embryos were whole-mounted in glycerol and imaged using an inverted fluorescence microscope (Nikon Eclipse TS100) fitted with a digital camera (Nikon digital sight DS-Fi1) and nuclei counted using imaging software ImageJ.
Embryos cultured in control groups were grown in G-™1 and G-2™ medium supplemented with HSA 5 mg/ml (HSA, Vitrolife). Embryos in treatment groups were similarly cultured with Acetyl Carnitine, Acetyl Cysteine or α-Lipoic acid Sigma Aldrich, USA) supplemented in the G-1™ and G-2™ medium at doses of 1, 10 and 100 μM and supplemented with HSA as the control group. […] The “total mean” means the average total number of cells in the embryo (including inner cell mass and trophectoderm) at day 5.
Embryos cultured in control groups were grown in G-1™ and G-2™ medium supplemented with HSA-Solution™ 5 mg/ml. Embryos in treatment groups were similarly cultured with 10 μM Acetyl Carnitine-10 μM Acetyl Cysteine, 10 μM Acetyl Carnitine-5 μM Lipoic acid, 10 μM Acetyl Cysteine-5 μM Lipoic acid, the triple cocktail of 10 μM Acetyl Carnitine-10 μM Acetyl Cysteine 5 μM Lipoic acid supplemented in the G-1™ and G-2™ medium and supplemented with HSA.

[2] = tested on: glutathione (GSH); experiment: BSO/MCB probe dosage optimisation and verification of MCB specificity to glutathione; format: cell-based, mice
Experimental: Embryos were cultured in groups of 10 in 20 ul drops of media under paraffin oil (Ovoil, Vitrolife) in 6% CO2, 20% O2 74% N2 at 37° C. in a humidified multi gas incubator (Sanyo MCOK-5M[RC], Japan). Half of the embryos were allocated to the control group and the other half to the treatment group. Control group embryos were cultured in G-1™ medium (G-1™ with HSA-Solution™, Vitrolife) […]. Treatment group embryos were likewise cultured with the optimal triple antioxidant dose supplemented in the G-1™ medium (as determined in Example 2).
Immediately after collection, pronucleate control embryos were incubated in G-1™ medium spiked with BSO at doses of 0, 50, 100, 200, 400, 800, 1600 μM for 4 hours at 6% CO2, 20% O2 74% N2 at 37° C. Embryos were rinsed thoroughly in G-1™ with HSA-Solution™ media and placed individually in 2 μl drops of GMOPS with HSA-Solution™ (G-MOPS™ Plus, Vitrolife AB, Sweden) made on glass bottom dishes (Fluorodish, Coherent Scientific, Australia) and overlayed with paraffin oil (Ovoil, Vitrolife) for fluorescence imaging. Optimal dosage was determined by recording the fluorescence at 360±40 nm/460±40 nm excitation/emission wavelengths under a fluorescence microscope (Nikon Eclipse TS100). Results were calculated by subtracting the values of blank (embryos with no BSO exposure) and basal levels of the culture media from the fluorescence recorded. […]

| SMILES | Total Mean (average total number of cells in the embryo at day 5) ([1]; 5 μM in G-1 and G-2 medium) | Total Mean (average total number of cells in the embryo at day 5) ([1]; 10 μM in G-1 and G-2 medium) | Total Mean (average total number of cells in the embryo at day 5) ([1]; 20 μM in G-1 and G-2 medium) | Total Mean (average total number of cells in the embryo at day 5) ([1]; 80 μM in G-1 and G-2 medium) | optimal dose (dose that resulted in significantly higher cell numbers) [1] | MCB fluorescence, BSO treated versus non-BSO treated group ([2]; 200 μM BSO, 80 μM MCB) | MCB fluorescence compared to groups treated with MCB only ([2]; pre-treated with 200 μM BSO, then 10 μM/ml or 40 μmol/ml MCB) | Total Mean (average total number of cells in the embryo at day 5) ([1]; 1 μM in G-1 and G-2 medium) | Total Mean (average total number of cells in the embryo at day 5) ([1]; 30 μM in G-1 and G-2 medium) | Total Mean (average total number of cells in the embryo at day 5) ([1]; 1000 μM in G-1 and G-2 medium) |
| --- | --- | --- | --- | --- | --- | --- | --- | --- | --- | --- |
| O=C(O)CCCCC1CCSS1 (stereo not drawn) [lipoic acid, α-lipoic acid] | 90.2 | 91.3 | 94 | 34.0 | 5 µM |  |  |  |  |  |
| CCCCS(=N)(=O)CCC(N)C(=O)O (centres unmarked) [BSO, buthionine sulfoximine] |  |  |  |  |  | no significant differences | significantly reduced fluorescence |  |  |  |
| CC(=O)O[C@H](CC(=O)[O-])C[N+](C)(C)C [Acetyl Carnitine, acetyl-L-carnitine] |  | 107.83 |  |  | 10 µM |  |  | 95.85 | 86.93 | 67.41 |
| CC(=O)N[C@@H](CS)C(=O)O [Acetyl Cysteine, N-acetyl-L-cysteine] |  | 109.29 |  |  | 10 µM |  |  | 81.92 | 104.38 | 95.17 |
